We go through twelve compounds from patent US20060003976A1, “Cholesterol/bile acid/bile acid derivative-modified therapeutic drug compounds” (priority 2004, published 2006).

Where a name gives a salt, the structure may show the parent alone. Read-outs that look alike come from different tables or passages of the source. Some results are limits rather than exact numbers.

The subject of data set [1] is NCI-H460 (ATCC #HTB-177) (non-small cell lung). To be noted: H460 (NSCLC); NCI GI50 values; read-out: GI50 (drug concentration that produces 50% cell growth inhibition); cited from earlier work.
The subject of data set [2] is HCT-15 (ATCC #CCL-225) (colorectal). The conditions noted are these: HCT-15 (COLON); NCI GI50 values; read-out: GI50 (drug concentration that produces 50% cell growth inhibition); cited from earlier work.
Data set [3] relates to HCT-116 (ATCC #CCL-247) (colorectal). The conditions noted are these: HCT-116 (COLON); NCI GI50 values; read-out: GI50 (drug concentration that produces 50% cell growth inhibition); cited from earlier work.
In data set [4] the test system is SKOV-3 (ATCC #HTB-77) (ovarian). The conditions noted are these: SKOV-3 (OVARIAN); NCI GI50 values; read-out: GI50 (drug concentration that produces 50% cell growth inhibition); cited from earlier work.
Data set [5] can be described thus: Solubility comparison in various solvents.
Procedure: Compounds were dissolved in each solvent under constant stirring and temperature.
The test system of data set [6] is NCI-H460 (ATCC #HTB-177) (non-small cell lung). In kind it is cell-based. To be noted: for GI50: read-out: GI50 (drug concentration that produces 50% cell growth inhibition); for GI50 (drug concentration that produces 50% cell growth inhibition): result in words.
In data set [7] the test system is HCT-15 (ATCC #CCL-225) (colorectal). The data set is classed as cell-based. To be noted: for GI50: read-out: GI50 (drug concentration that produces 50% cell growth inhibition); for GI50 (drug concentration that produces 50% cell growth inhibition): result in words.
Data set [8] relates to HCT-116 (ATCC #CCL-247) (colorectal). In kind it is cell-based. To be noted: for GI50: read-out: GI50 (drug concentration that produces 50% cell growth inhibition); for GI50 (drug concentration that produces 50% cell growth inhibition): result in words.
The subject of data set [9] is SKOV-3 (ATCC #HTB-77) (ovarian). In kind it is cell-based. To be noted: for GI50: read-out: GI50 (drug concentration that produces 50% cell growth inhibition); for GI50 (drug concentration that produces 50% cell growth inhibition): result in words.

As for `CC[C@@]1(O)C(=O)OCc2c1cc1n(c2=O)Cc2cc3ccccc3nc2-1` [Camptothecin, camptothecin], the GI50 in [1] is 16 nM; in data set [2] it was 160 nM; in data set [3], 40 nM; in data set [4], 25 nM. Also, the Solubility in [5] (Acetonitrile, r.t.) worked out at 0.09 mg/g; in data set [5] (Soybean Oil USP, r.t.) it was 0.00 mg/g.
Take `CCc1c2c(nc3ccc(OC(=O)CC4(CC(=O)O[C@H]5CC[C@@]6(C)C(=CC[C@H]7[C@@H]8CC[C@H]([C@H](C)CCCC(C)C)[C@@]8(C)CC[C@@H]76)C5)CCCC4)cc13)-c1cc3c(c(=O)n1C2)COC(=O)[C@]3(O)CC` [Cholesterol 3,3-tetramethylene glutaric-10-(7-ethyl-10-hydroxycamptothecin)]: the GI50 in data set [6] (H460 (NSCLC), 48 hours) was 871 nM; in data set [7] (HCT-15 (COLON), 48 hours) it was 12600 nM; in data set [8] (HCT-116 (COLON), 48 hours) it was 2000 nM; in data set [9] (SKOV-3 (OVARIAN), 48 hours), 295 nM.
Turning to `CC[C@@]1(OC(=O)CC2(CC(=O)O[C@H]3CC[C@@]4(C)C(=CC[C@H]5[C@@H]6CC[C@H]([C@H](C)CCCC(C)C)[C@@]6(C)CC[C@@H]54)C3)CCCC2)C(=O)OCc2c1cc1n(c2=O)Cc2cc3ccccc3nc2-1` [Cholesterol 3,3-tetramethylene glutaric-20-camptothecin], the GI50 in data set [6] (H460 (NSCLC), 48 hours) was ~10000 nM; in data set [7] (HCT-15 (COLON), 48 hours), ~10000 nM; in data set [8] (HCT-116 (COLON), 48 hours), ~10000 nM. The “GI50 (drug concentration that produces 50% cell growth inhibition)” value in data set [9] (SKOV-3 (OVARIAN), 48 hours) is listed as “poor”.
In the case of `CCc1c2c(nc3ccc(OC(=O)CC(C)CC(=O)O[C@H]4CC[C@@]5(C)C(=CC[C@H]6[C@@H]7CC[C@H]([C@H](C)CCCC(C)C)[C@@]7(C)CC[C@@H]65)C4)cc13)-c1cc3c(c(=O)n1C2)COC(=O)[C@]3(O)CC` (stereo partly drawn) [Cholesterol 3-methyl glutaric-10-SN38, Cholesterol 3-methylglutaric-10-(7-ethyl-10-hydroxycamptothecin)], the GI50 in data set [6] (H460 (NSCLC), 48 hours) is 245 nM; in data set [7] (HCT-15 (COLON), 48 hours), 2880 nM; in data set [8] (HCT-116 (COLON), 48 hours), 263 nM. For the same compound, the “GI50 (drug concentration that produces 50% cell growth inhibition)” value in [9] (SKOV-3 (OVARIAN), 48 hours) is given as “poor”.
In the case of `CC[C@@]1(OC(=O)CC(C)CC(=O)O[C@H]2CC[C@@]3(C)C(=CC[C@H]4[C@@H]5CC[C@H]([C@H](C)CCCC(C)C)[C@@]5(C)CC[C@@H]43)C2)C(=O)OCc2c1cc1n(c2=O)Cc2cc3ccccc3nc2-1` (stereo partly drawn) [Cholesterol 3-methyl glutaric-20-CPT, Cholesterol 3-Methyglutaric-20-Camptothecin], the “GI50 (drug concentration that produces 50% cell growth inhibition)” value in [6] (H460 (NSCLC), 48 hours) is “poor”; in [7] (HCT-15 (COLON), 48 hours) it was “poor”; in [8] (HCT-116 (COLON), 48 hours), “poor”; in data set [9] (SKOV-3 (OVARIAN), 48 hours) it was “poor”.
Turning to `CCc1c2c(nc3ccc(OC(=O)O[C@H]4CC[C@@]5(C)C(=CC[C@H]6[C@@H]7CC[C@H]([C@H](C)CCCC(C)C)[C@@]7(C)CC[C@@H]65)C4)cc13)-c1cc3c(c(=O)n1C2)COC(=O)[C@]3(O)CC` [Cholesterol formate-10-SN38, Cholesterol formate-10-(7-ethyl-10-hydroxycamptothecin)], the GI50 was determined as 10.5 nM in [6] (H460 (NSCLC), 48 hours); 1910 nM in data set [7] (HCT-15 (COLON), 48 hours); 631 nM in data set [8] (HCT-116 (COLON), 48 hours); 51.4 nM in data set [9] (SKOV-3 (OVARIAN), 48 hours). For the same compound, the Solubility in [5] (Acetonitrile, r.t.) is <1 mg/g; in [5] (Chloroform, r.t.), >40 mg/g; in data set [5] (Soybean Oil USP, r.t.), <1 mg/g; in data set [5] (Vitamin E USP/NF, 65 °C), >14 mg/g.
As for `CC[C@@]1(OC(=O)O[C@H]2CC[C@@]3(C)C(=CC[C@H]4[C@@H]5CC[C@H]([C@H](C)CCCC(C)C)[C@@]5(C)CC[C@@H]43)C2)C(=O)OCc2c1cc1n(c2=O)Cc2cc3ccccc3nc2-1` [Cholesterol formate-20-CPT, Cholesterol Formate-20-camptothecin], the “GI50 (drug concentration that produces 50% cell growth inhibition)” value in data set [6] (H460 (NSCLC), 48 hours) was “poor”; in [7] (HCT-15 (COLON), 48 hours), “poor”; in data set [8] (HCT-116 (COLON), 48 hours), “poor”; in data set [9] (SKOV-3 (OVARIAN), 48 hours), “poor”. The Solubility in [5] (Acetonitrile, r.t.) is listed as <1 mg/g; in [5] (Chloroform, r.t.) it was >335 mg/g; in data set [5] (Soybean Oil USP, r.t.), >2 mg/g; in data set [5] (Vitamin E USP/NF, 65 °C), >32 mg/g.
Take `CCc1c2c(nc3ccc(OC(=O)CCC(=O)O[C@H]4CC[C@@]5(C)C(=CC[C@H]6[C@@H]7CC[C@H]([C@H](C)CCCC(C)C)[C@@]7(C)CC[C@@H]65)C4)cc13)-c1cc3c(c(=O)n1C2)COC(=O)[C@]3(O)CC` [Cholesterol succinate-10-SN38, Cholesterol succinate-10-(7-ethyl-10-hydroxycamptothecin)]: the GI50 was found to be 1660 nM in data set [6], 635 nM in data set [7], 339 nM in [8] and 708 nM in data set [9].
With `CC[C@@]1(OC(=O)CCC(=O)O[C@H]2CC[C@@]3(C)C(=CC[C@H]4[C@@H]5CC[C@H]([C@H](C)CCCC(C)C)[C@@]5(C)CC[C@@H]43)C2)C(=O)OCc2c1cc1n(c2=O)Cc2cc3ccccc3nc2-1` [Cholesterol succinate-20-CPT, Cholesterol succinate-20-camptothecin], the GI50 was > 5000 nM in data set [6] (H460 (NSCLC), 48 hours); > 5000 nM in data set [7] (HCT-15 (COLON), 48 hours); > 5000 nM in data set [8] (HCT-116 (COLON), 48 hours); > 5000 nM in data set [9] (SKOV-3 (OVARIAN), 48 hours).
Take `CCc1c2c(nc3ccc(OC(=O)N4CCC(N5CCCCC5)CC4)cc13)-c1cc3c(c(=O)n1C2)COC(=O)[C@]3(O)CC` [Irinotecan, irinotecan]: the figures for the GI50 in data set [1], in [3] and in [4] were 5010 nM, 7900 nM and 17 nM, respectively.
As for `CCc1c2c(nc3ccc(O)cc13)-c1cc3c(c(=O)n1C2)COC(=O)[C@]3(O)CC` [SN38, 7-ethyl-10-hydroxycamptothecin], the GI50 is 1.4 nM in [1], 7.9 nM in data set [2], 21 nM in data set [3] and 1 nM in data set [4].
In the case of `CC[C@@]1(O)C(=O)OCc2c1cc1n(c2=O)Cc2cc3c(CN(C)C)c(O)ccc3nc2-1` [Topotecan, topotecan], the GI50 in data set [1] was 19.9 nM; in data set [2] it was 501 nM; in data set [3] it was 39.8 nM; in data set [4], 63 nM.
